PubChem BioAssay AID1745844 (Carcinogenic Potency Database (CPDB), 2022)
Values joined by “and” are separate entries in the source; they are usually repeats but may differ in a detail not shown here. Equal values may be shown once. Active and inactive are the calls of the source. How the calls were made is not given here.

System: rodent lifetime carcinogenesis bioassay, tumor incidence TD50
Assay: chronic cancer bioassays in animals – CPDB, compiled studies (AID 1745844)

## [O-][Br+2]([O-])O
hamster, strain Syrian Golden, males, in drinking water, site: kidney, lesion: renal-cell tumor, dosed 89 weeks, study length 89 weeks
  TD50: 533 mg/kg/day
mouse, strain B6C3F1, females, in drinking water, site: any site (literature study), lesion: several types, types named in the paper, dosed 78 weeks, study length 104 weeks
  TD50: 477 mg/kg/day
mouse, strain B6C3F1, females, in drinking water, site: liver, lesion: adenoma, dosed 78 weeks, study length 104 weeks
  TD50: 1180 mg/kg/day
mouse, strain B6C3F1, females, in drinking water, site: liver, lesion: several types, types named in the paper, dosed 78 weeks, study length 104 weeks
  TD50: 1710 mg/kg/day
mouse, strain B6C3F1, females, in drinking water, site: lung, lesion: adenoma, dosed 78 weeks, study length 104 weeks
  TD50: 2030 mg/kg/day
mouse, strain B6C3F1, females, in drinking water, site: lung, lesion: several types, types named in the paper, dosed 78 weeks, study length 104 weeks
  TD50: 1050 mg/kg/day
mouse, strain B6C3F1, males, in drinking water, site: kidney, lesion: renal-cell carcinoma, dosed 100 weeks, study length 100 weeks
  TD50: 92.5 mg/kg/day
mouse, strain B6C3F1, males, in drinking water, site: kidney, lesion: several types, types named in the paper, dosed 100 weeks, study length 100 weeks
  TD50: 53.8 mg/kg/day
mouse, strain Theiller's Original, females, in feed, site: liver, lesion: hemangioma, dosed 80 weeks, study length 80 weeks
  TD50: 347 mg/kg/day (inactive)
mouse, strain Theiller's Original, males, in feed, site: any site (literature study), lesion: malignant tumor, dosed 80 weeks, study length 80 weeks
  carcinogen call: negative (inactive)
mouse, strain Theiller's Original, males, in feed, site: liver, lesion: one or several types, types not named, dosed 80 weeks, study length 80 weeks
  carcinogen call: negative (inactive)
rat, strain F344/DuCrj, males, in drinking water, site: kidney, lesion: adenocarcinoma, dosed 26 weeks, study length 104 weeks
  TD50: 79.2 mg/kg/day
rat, strain F344/DuCrj, males, in drinking water, site: kidney, lesion: adenocarcinoma, dosed 39 weeks, study length 104 weeks
  TD50: 16.9 mg/kg/day
rat, strain F344/DuCrj, males, in drinking water, site: kidney, lesion: adenocarcinoma, dosed 52 weeks, study length 104 weeks
  TD50: 35.5 mg/kg/day
rat, strain F344/DuCrj, males, in drinking water, site: kidney, lesion: adenocarcinoma, dosed 104 weeks, study length 104 weeks
  TD50: 105 mg/kg/day and 224 mg/kg/day
rat, strain F344/DuCrj, males, in drinking water, site: kidney, lesion: adenoma, dosed 26 weeks, study length 104 weeks
  TD50: 6.67 mg/kg/day
rat, strain F344/DuCrj, males, in drinking water, site: kidney, lesion: adenoma, dosed 39 weeks, study length 104 weeks
  TD50: 5.57 mg/kg/day
rat, strain F344/DuCrj, males, in drinking water, site: kidney, lesion: adenoma, dosed 52 weeks, study length 52 weeks
  TD50: 4.98 mg/kg/day
rat, strain F344/DuCrj, males, in drinking water, site: kidney, lesion: adenoma, dosed 52 weeks, study length 104 weeks
  TD50: 10.1 mg/kg/day
rat, strain F344/DuCrj, males, in drinking water, site: kidney, lesion: adenoma, dosed 104 weeks, study length 104 weeks
  TD50: 48 mg/kg/day and 35.7 mg/kg/day
rat, strain F344/DuCrj, males, in drinking water, site: kidney, lesion: renal-cell tumor, dosed 104 weeks, study length 104 weeks
  TD50: 28.9 mg/kg/day
rat, strain F344/DuCrj, males, in drinking water, site: kidney, lesion: several types, types named in the paper, dosed 26 weeks, study length 104 weeks
  TD50: 6.67 mg/kg/day
rat, strain F344/DuCrj, males, in drinking water, site: kidney, lesion: several types, types named in the paper, dosed 39 weeks, study length 104 weeks
  TD50: 4.81 mg/kg/day
rat, strain F344/DuCrj, males, in drinking water, site: kidney, lesion: several types, types named in the paper, dosed 52 weeks, study length 104 weeks
  TD50: 8.32 mg/kg/day
rat, strain F344/DuCrj, males, in drinking water, site: kidney, lesion: several types, types named in the paper, dosed 104 weeks, study length 104 weeks
  TD50: 28.7 mg/kg/day
rat, strain F344/DuCrj, males, in drinking water, site: liver, lesion: neoplastic nodule, dosed 104 weeks, study length 104 weeks
  TD50: 53.2 mg/kg/day
rat, strain F344/DuCrj, males, in drinking water, site: peritoneum, lesion: mesothelioma, dosed 26 weeks, study length 104 weeks
  TD50: 7.84 mg/kg/day
rat, strain F344/DuCrj, males, in drinking water, site: peritoneum, lesion: mesothelioma, dosed 39 weeks, study length 104 weeks
  TD50: 14 mg/kg/day
rat, strain F344/DuCrj, males, in drinking water, site: peritoneum, lesion: mesothelioma, dosed 52 weeks, study length 52 weeks
  TD50: 25.6 mg/kg/day
rat, strain F344/DuCrj, males, in drinking water, site: peritoneum, lesion: mesothelioma, dosed 52 weeks, study length 104 weeks
  TD50: 19.4 mg/kg/day
rat, strain F344/DuCrj, males, in drinking water, site: peritoneum, lesion: mesothelioma, dosed 104 weeks, study length 104 weeks
  TD50: 12.4 mg/kg/day and 19.5 mg/kg/day
rat, strain F344/DuCrj, males, in drinking water, site: thyroid gland, lesion: follicular-cell adenoma, dosed 104 weeks, study length 104 weeks
  TD50: 59.5 mg/kg/day
rat, strain F344/DuCrj, males, in drinking water, site: thyroid gland, lesion: follicular-cell tumor, dosed 26 weeks, study length 104 weeks
  TD50: 11.3 mg/kg/day
rat, strain F344/DuCrj, males, in drinking water, site: thyroid gland, lesion: follicular-cell tumor, dosed 52 weeks, study length 104 weeks
  TD50: 19.4 mg/kg/day
rat, strain F344/DuCrj, males, in drinking water, site: thyroid gland, lesion: follicular-cell tumor, dosed 104 weeks, study length 104 weeks
  TD50: 39.8 mg/kg/day and 54.7 mg/kg/day
rat, strain Fischer 344, females, in drinking water, site: any site (literature study), lesion: several types, types named in the paper, dosed 110 weeks, study length 111 weeks
  TD50: 9.05 mg/kg/day
rat, strain Fischer 344, females, in drinking water, site: kidney, lesion: adenocarcinoma, dosed 110 weeks, study length 111 weeks
  TD50: 16.4 mg/kg/day
rat, strain Fischer 344, females, in drinking water, site: kidney, lesion: adenoma, dosed 110 weeks, study length 111 weeks
  TD50: 87.5 mg/kg/day
rat, strain Fischer 344, females, in drinking water, site: kidney, lesion: several types, types named in the paper, dosed 110 weeks, study length 111 weeks
  TD50: 13.7 mg/kg/day
rat, strain Fischer 344, females, in drinking water, site: thyroid gland, lesion: several types, types named in the paper, dosed 110 weeks, study length 111 weeks
  TD50: 97.6 mg/kg/day
rat, strain Fischer 344, males, in drinking water, site: kidney, lesion: adenocarcinoma, dosed 110 weeks, study length 111 weeks
  TD50: 12.6 mg/kg/day
rat, strain Fischer 344, males, in drinking water, site: kidney, lesion: adenoma, dosed 110 weeks, study length 111 weeks
  TD50: 46.2 mg/kg/day
rat, strain Fischer 344, males, in drinking water, site: kidney, lesion: renal-cell adenoma, dosed 52 weeks, study length 52 weeks
  TD50: 16.7 mg/kg/day
rat, strain Fischer 344, males, in drinking water, site: kidney, lesion: renal-cell adenoma, dosed 77 weeks, study length 77 weeks
  TD50: 15.3 mg/kg/day
rat, strain Fischer 344, males, in drinking water, site: kidney, lesion: renal-cell adenoma, dosed 100 weeks, study length 100 weeks
  TD50: 31.1 mg/kg/day
rat, strain Fischer 344, males, in drinking water, site: kidney, lesion: renal-cell carcinoma, dosed 100 weeks, study length 100 weeks
  TD50: 62.2 mg/kg/day
rat, strain Fischer 344, males, in drinking water, site: kidney, lesion: several types, types named in the paper, dosed 100 weeks, study length 100 weeks
  TD50: 20.8 mg/kg/day
rat, strain Fischer 344, males, in drinking water, site: kidney, lesion: several types, types named in the paper, dosed 110 weeks, study length 111 weeks
  TD50: 9.62 mg/kg/day
rat, strain Fischer 344, males, in drinking water, site: liver, lesion: several types, types named in the paper, dosed 110 weeks, study length 111 weeks
  TD50: 164 mg/kg/day
rat, strain Fischer 344, males, in drinking water, site: peritoneum, lesion: mesothelioma, dosed 110 weeks, study length 111 weeks
  TD50: 25.3 mg/kg/day
rat, strain Fischer 344, males, in drinking water, site: thyroid gland, lesion: follicular-cell adenoma, dosed 100 weeks, study length 100 weeks
  TD50: 35.2 mg/kg/day
rat, strain Fischer 344, males, in drinking water, site: thyroid gland, lesion: follicular-cell carcinoma, dosed 77 weeks, study length 77 weeks
  TD50: 34.8 mg/kg/day
rat, strain Fischer 344, males, in drinking water, site: thyroid gland, lesion: follicular-cell carcinoma, dosed 100 weeks, study length 100 weeks
  TD50: 62.9 mg/kg/day
rat, strain Fischer 344, males, in drinking water, site: thyroid gland, lesion: several types, types named in the paper, dosed 77 weeks, study length 77 weeks
  TD50: 21.8 mg/kg/day
rat, strain Fischer 344, males, in drinking water, site: thyroid gland, lesion: several types, types named in the paper, dosed 100 weeks, study length 100 weeks
  TD50: 22.2 mg/kg/day
rat, strain Fischer 344, males, in drinking water, site: tunica vaginalis, lesion: mesothelioma, dosed 52 weeks, study length 52 weeks
  TD50: 36.1 mg/kg/day
rat, strain Fischer 344, males, in drinking water, site: tunica vaginalis, lesion: mesothelioma, dosed 77 weeks, study length 77 weeks
  TD50: 15.3 mg/kg/day
rat, strain Fischer 344, males, in drinking water, site: tunica vaginalis, lesion: mesothelioma, dosed 100 weeks, study length 100 weeks
  TD50: 11.1 mg/kg/day

## Nc1ccc(NCCO)c([N+](=O)[O-])c1
mouse, strain B6C3F1, females, by gavage, site: any site (literature study), lesion: several types, types named in the paper, dosed 104 weeks, study length 105 weeks
  TD50: 292 mg/kg/day
mouse, strain B6C3F1, females, by gavage, site: forestomach, lesion: squamous-cell papilloma, dosed 104 weeks, study length 105 weeks
  TD50: 721 mg/kg/day
mouse, strain B6C3F1, females, by gavage, site: lung, lesion: alveolar/bronchiolar adenoma + alveolar/bronchiolar carcinoma, dosed 104 weeks, study length 105 weeks
  TD50: 4670 mg/kg/day
mouse, strain B6C3F1, males, by gavage, site: liver, lesion: hepatocellular adenoma + hepatocellular carcinoma + neoplastic nodule, dosed 104 weeks, study length 105 weeks
  TD50: 427 mg/kg/day
mouse, strain B6C3F1, males, by gavage, site: liver, lesion: hepatocellular adenoma + hepatocellular carcinoma, dosed 104 weeks, study length 105 weeks
  TD50: 427 mg/kg/day
mouse, strain B6C3F1, males, by gavage, site: lung, lesion: alveolar/bronchiolar adenoma + alveolar/bronchiolar carcinoma, dosed 104 weeks, study length 105 weeks
  TD50: 1750 mg/kg/day
rat, strain Fischer 344, females, by gavage, site: any site (literature study), lesion: several types, types named in the paper, dosed 105 weeks, study length 106 weeks
  TD50: 4870 mg/kg/day (inactive)
rat, strain Fischer 344, males, by gavage, site: any site (literature study), lesion: several types, types named in the paper, dosed 105 weeks, study length 106 weeks
  TD50: 500 mg/kg/day (inactive)
rat, strain Fischer 344, males, by gavage, site: liver, lesion: hepatocellular adenoma + hepatocellular carcinoma + neoplastic nodule, dosed 105 weeks, study length 106 weeks
  TD50: 1.51e+06 mg/kg/day

## Cc1c(N(C)CS(=O)(=O)O)c(=O)n(-c2ccccc2)n1C
mouse, strain B6C3F1, females, in drinking water, site: liver, lesion: hepatocellular carcinoma, dosed 75 weeks, study length 86 weeks
  TD50: 7120 mg/kg/day
mouse, strain B6C3F1, females, in drinking water, site: liver, lesion: several types, types named in the paper, dosed 75 weeks, study length 86 weeks
  TD50: 742 mg/kg/day
mouse, strain B6C3F1, males, in drinking water, site: liver, lesion: several types, types named in the paper, dosed 77 weeks, study length 86 weeks
  TD50: 547 mg/kg/day
rat, strain F344/DuCrj, males, in drinking water, site: liver, lesion: neoplastic nodule, dosed 72 weeks, study length 83 weeks
  TD50: 400 mg/kg/day
rat, strain Wistar, females, in feed, site: liver, lesion: adenoma, dosed 104 weeks, study length 130 weeks
  TD50: 33100 mg/kg/day (inactive)
rat, strain Wistar, females, in feed, site: liver, lesion: angiosarcoma, dosed 104 weeks, study length 130 weeks
  TD50: 41400 mg/kg/day (inactive)
rat, strain Wistar, females, in feed, site: liver, lesion: liver-cell carcinoma, dosed 104 weeks, study length 130 weeks
  TD50: 8330 mg/kg/day (inactive)
rat, strain Wistar, females, in feed, site: mammary gland, lesion: adenoma, dosed 104 weeks, study length 130 weeks
  TD50: 328 mg/kg/day (inactive)
rat, strain Wistar, males, in feed, site: liver, lesion: adenoma, dosed 104 weeks, study length 130 weeks
  TD50: 3340 mg/kg/day (inactive)
rat, strain Wistar, males, in feed, site: liver, lesion: anaplastic carcinoma, dosed 104 weeks, study length 130 weeks
  carcinogen call: negative (inactive)
